Laboratory results as given in patent US7098186B2, “Depsipeptide compound” (Astellas Pharma INC, priority 2002, dated 2006).
pIC50: −log10 of the molar value.

Experiments:
Format in all cases: cell-based
[1] = test system: Human colon cancer WiDr cells; experiment: Inhibition of cell proliferation against human cancer cells (Alamar Blue), WiDr; settings: 72 hours culture
Experimental: (§1) Human colon cancer WiDr cells or human leukemia K562 cells were inoculated into a 96-well test plate at a density of 5×10^3 cell/well and cultured at 37° C. in a […] incubator. Eighteen hours after the inoculation, the solvent (DMSO) diluted with the medium and various concentrations of the compound Q or R were added, and followed by further culture at 37° C. in a […] incubator for 72 hours. After the culturing, the proliferation of cells was measured with Alamar Blue (BIOSOURCE Co.). The measurement values for the conditions in which 0.1% DMSO and cells had been added, and 0.1% DMSO had been added and cells had not been added were assigned to be 0% inhibition and 100% inhibition, respectively, and the proliferation inhibition rate for each concentration of the compounds was obtained, then the concentration of inhibiting proliferation by 50% (IC50 value) was calculated by logistic regression.

[2] = test system: human leukemia K562 cells; experiment: Inhibition of cell proliferation against human cancer cells (Alamar Blue), K562; settings: 72 hours culture
Experimental: as §1

[3] = test system: acetylated histone H3 in K562 cells; experiment: Effect on inducing histone acetylation against human cancer cells (Western blot, anti-acetylated histone H3); settings: 0.3 to 30 nM, 24 hours, in comparison with the sample treated with solvent
Experimental: After inoculating K562 cells into a 35 mm dish at a density of 1.5×10^6 cell/dish, the solvent (DMSO) and various concentrations (0.3 to 30 nM) of the compound Q or R were added and cultured at 37° C. in a […] incubator for 24 hours. Extraction of the histone protein was performed by the following method. To the cell precipitate collected by centrifugation, TEN buffer (10 mM Tris HCl (pH 8.0), 1 mM EDTA, 1% NP-40, 1 tablet/10 mL Complete mini (Roche Co.)) was added, stood on the ice for 10 minutes, and the supernatant was collected by centrifugation. The supernatant was mixed well with an equal amount of 0.4 M sulfuric acid, and stood on ice for 1 hour. The supernatant portion was collected by centrifugation, mixed with 5 times amount of acetone and stood at −20° C. for 12 hours or more. The precipitate was collected by centrifugation, washed once with acetone, and then the precipitate was dried. The precipitate was dissolved in distilled water, which was made to be histone protein, the protein concentration was determined by the Bradford method. […] For the primary antibody, an anti-acetylated histone H3 antibody (UPSTATE biotechnology Co.), for the secondary antibody, an HRP labeled anti-rabbit antibody (Amersham Pharmacia Biotech Co.) were used, and luminescence was detected by ECL (Amersham Pharmacia Biotech Co.).

Row | pIC50 [1] | pIC50 [2] | Compound | bands of acetylated histone H3 (induction of histone acetylation) [3]
1 | 8.52 | 8.85 | CC1NC(=O)CC2/C=C/CCSSSCC(NC1=O)C(=O)NC(C(C)C)C(O)CC(=O)O2 (stereo not drawn) [compound Q] | significant and dose-dependent bands of acetylated histone H3 were detected
2 | 9.05 | 9.22 | CC1NC(=O)CC2/C=C/CCSSCC(NC1=O)C(=O)NC(C(C)C)C(O)CC(=O)O2 (stereo not drawn) [compound R] | significant and dose-dependent bands of acetylated histone H3 were detected
